Tested on: small cell lung cancer cell lines
Assay: qRT-PCR time- and dosage-dependent expression change of candidate PD markers ASCL1, GRP, NOTCH1 in SCLC cell lines
Assay type: cell-based, human
Description: Seven small cell lung cancer cell lines were treated with 0.1 nM, 1 nM and 10 nM (trans)-N1-((1R,2S)-2-phenylcyclopropyl)cyclohexane-1,4-diamine or vehicle 24 hr, 96 hr and 7 days. Lysates were prepared by lysis in RNA lysis buffer containing 1% β-mercaptoethanol. RNA extraction was performed using a Maxwell 16 instrument and a Maxwell 16 LEV simply RNA cells Kit (Promega), according to the manufacturer's instructions. The mRNA expression levels of each cell line after treatment were then measured using qRT-PCR. The RT-qPCR reaction was conducted using a one-step kit (ABI), with a duplexed house-keeping control (Assay ID Hs02800695_m1) using the assays in the table below. The log 2 fold changes for each gene were calculated by comparing with the vehicle controlled samples at 24 hr sampling point.
Table 6 contains the dose-dependent effect on expression changes for candidate PD markers ASCL1 (Assay ID Hs04187546_g1), GRP (Assay ID Hs01107047_m1) and NOTCH1 (Assay ID Hs01062014_m1).

[1] = SHP-77, 0.1 nM, 24 hrs, vs vehicle at 24 hr
[2] = SHP-77, 0.1 nM, 96 hrs, vs vehicle at 24 hr
[3] = SHP-77, 0.1 nM, 168 hrs, vs vehicle at 24 hr
[4] = SHP-77, 1 nM, 24 hrs, vs vehicle at 24 hr
[5] = SHP-77, 1 nM, 96 hrs, vs vehicle at 24 hr
[6] = SHP-77, 1 nM, 168 hrs, vs vehicle at 24 hr
[7] = SHP-77, 10 nM, 24 hrs, vs vehicle at 24 hr
[8] = SHP-77, 10 nM, 96 hrs, vs vehicle at 24 hr
[9] = SHP-77, 10 nM, 168 hrs, vs vehicle at 24 hr

N[C@H]1CC[C@H](N[C@@H]2C[C@H]2c2ccccc2)CC1 [RG6016, (trans)-N1-((1R,2S)-2-phenylcyclopropyl)cyclohexane-1,4-diamine]
Log2_FC ASCL1 (NCI-H510A, 1 nM, 168 hrs): −0.51 | Log2_FC GRP (NCI-H510A, 1 nM, 168 hrs): −2.34 | Log2_FC NOTCH1 (NCI-H510A, 1 nM, 168 hrs): 3.98 | Log2_FC ASCL1 (NCI-H510A, 10 nM, 24 hrs): −0.28 | Log2_FC GRP (NCI-H510A, 10 nM, 24 hrs): −0.35 | Log2_FC NOTCH1 (NCI-H510A, 10 nM, 24 hrs): 1.60 | Log2_FC ASCL1 (NCI-H510A, 10 nM, 96 hrs): −0.55 | Log2_FC GRP (NCI-H510A, 10 nM, 96 hrs): −2.02 | Log2_FC NOTCH1 (NCI-H510A, 10 nM, 96 hrs): 2.89 | Log2_FC ASCL1 (NCI-H510A, 10 nM, 168 hrs): −0.64 | Log2_FC GRP (NCI-H510A, 10 nM, 168 hrs): −2.53 | Log2_FC NOTCH1 (NCI-H510A, 10 nM, 168 hrs): 4.16 | Log2_FC NOTCH1 (NCI-H526, 0.1 nM, 24 hrs, vs vehicle at 24 hr): 0.04 | Log2_FC NOTCH1 (NCI-H526, 0.1 nM, 96 hrs, vs vehicle at 24 hr): 0.51 | Log2_FC NOTCH1 (NCI-H526, 0.1 nM, 168 hrs, vs vehicle at 24 hr): 0.55 | Log2_FC NOTCH1 (NCI-H526, 1 nM, 24 hrs, vs vehicle at 24 hr): 0.27 | Log2_FC NOTCH1 (NCI-H526, 1 nM, 96 hrs, vs vehicle at 24 hr): 0.53 | Log2_FC NOTCH1 (NCI-H526, 1 nM, 168 hrs, vs vehicle at 24 hr): 0.96 | Log2_FC NOTCH1 (NCI-H526, 10 nM, 24 hrs, vs vehicle at 24 hr): 0.41 | Log2_FC NOTCH1 (NCI-H526, 10 nM, 96 hrs, vs vehicle at 24 hr): 0.70 | Log2_FC NOTCH1 (NCI-H526, 10 nM, 168 hrs, vs vehicle at 24 hr): 0.33 | Log2_FC ASCL1 (NCI-H1417, 0.1 nM, 24 hrs): −0.19 | Log2_FC GRP (NCI-H1417, 0.1 nM, 24 hrs): 0.24 | Log2_FC NOTCH1 (NCI-H1417, 0.1 nM, 24 hrs): 0.14 | Log2_FC ASCL1 (NCI-H1417, 0.1 nM, 96 hrs): 0.12 | Log2_FC GRP (NCI-H1417, 0.1 nM, 96 hrs): −0.25 | Log2_FC NOTCH1 (NCI-H1417, 0.1 nM, 96 hrs): 0.98 | Log2_FC ASCL1 (NCI-H1417, 0.1 nM, 168 hrs): 0.13 | Log2_FC GRP (NCI-H1417, 0.1 nM, 168 hrs): −0.51 | Log2_FC NOTCH1 (NCI-H1417, 0.1 nM, 168 hrs): 0.86 | Log2_FC ASCL1 (NCI-H1417, 1 nM, 24 hrs): −0.20 | Log2_FC GRP (NCI-H1417, 1 nM, 24 hrs): −0.25 | Log2_FC NOTCH1 (NCI-H1417, 1 nM, 24 hrs): 1.40 | Log2_FC ASCL1 (NCI-H1417, 1 nM, 96 hrs): −0.27 | Log2_FC GRP (NCI-H1417, 1 nM, 96 hrs): −1.06 | Log2_FC NOTCH1 (NCI-H1417, 1 nM, 96 hrs): 3.04 | Log2_FC ASCL1 (NCI-H1417, 1 nM, 168 hrs): −0.19 | Log2_FC GRP (NCI-H1417, 1 nM, 168 hrs): −0.68 | Log2_FC NOTCH1 (NCI-H1417, 1 nM, 168 hrs): 2.55 | Log2_FC ASCL1 (NCI-H1417, 10 nM, 24 hrs): −0.25 | Log2_FC GRP (NCI-H1417, 10 nM, 24 hrs): −0.35 | Log2_FC NOTCH1 (NCI-H1417, 10 nM, 24 hrs): 1.86 | Log2_FC ASCL1 (NCI-H1417, 10 nM, 96 hrs): −0.54 | Log2_FC GRP (NCI-H1417, 10 nM, 96 hrs): −1.13 | Log2_FC NOTCH1 (NCI-H1417, 10 nM, 96 hrs): 3.14 | Log2_FC ASCL1 (NCI-H1417, 10 nM, 168 hrs): −0.66 | Log2_FC GRP (NCI-H1417, 10 nM, 168 hrs): −1.14 | Log2_FC NOTCH1 (NCI-H1417, 10 nM, 168 hrs): 3.22 | Log2_FC ASCL1 (NCI-H1876, 0.1 nM, 24 hrs): 0.16 | Log2_FC GRP (NCI-H1876, 0.1 nM, 24 hrs): 0.41 | Log2_FC NOTCH1 (NCI-H1876, 0.1 nM, 24 hrs): 0.82 | Log2_FC ASCL1 (NCI-H1876, 0.1 nM, 96 hrs): −0.58 | Log2_FC GRP (NCI-H1876, 0.1 nM, 96 hrs): −1.58 | Log2_FC NOTCH1 (NCI-H1876, 0.1 nM, 96 hrs): −0.76 | Log2_FC ASCL1 (NCI-H1876, 0.1 nM, 168 hrs): 0.35 | Log2_FC NOTCH1 (NCI-H1876, 0.1 nM, 168 hrs): −0.59 | Log2_FC ASCL1 (NCI-H1876, 1 nM, 24 hrs): 0.04 | Log2_FC GRP (NCI-H1876, 1 nM, 24 hrs): 0.70 | Log2_FC NOTCH1 (NCI-H1876, 1 nM, 24 hrs): 2.28 | Log2_FC ASCL1 (NCI-H1876, 1 nM, 96 hrs): −0.54 | Log2_FC GRP (NCI-H1876, 1 nM, 96 hrs): −1.96 | Log2_FC NOTCH1 (NCI-H1876, 1 nM, 96 hrs): 1.08 | Log2_FC ASCL1 (NCI-H1876, 1 nM, 168 hrs): 0.32 | Log2_FC GRP (NCI-H1876, 1 nM, 168 hrs): −0.54 | Log2_FC ASCL1 (NCI-H1876, 10 nM, 24 hrs): −0.02 | Log2_FC GRP (NCI-H1876, 10 nM, 24 hrs): 0.38 | Log2_FC NOTCH1 (NCI-H1876, 10 nM, 24 hrs): 2.67 | Log2_FC ASCL1 (NCI-H1876, 10 nM, 96 hrs): −0.82 | Log2_FC NOTCH1 (NCI-H1876, 10 nM, 96 hrs): 2.07 | Log2_FC ASCL1 (NCI-H1876, 10 nM, 168 hrs): 0.03 | Log2_FC GRP (NCI-H1876, 10 nM, 168 hrs): −1.38 | Log2_FC NOTCH1 (NCI-H1876, 10 nM, 168 hrs): 2.55 | Log2_FC ASCL1 (NCI-H2171, 0.1 nM, 24 hrs): −0.14 | Log2_FC GRP (NCI-H2171, 0.1 nM, 24 hrs): 0.01 | Log2_FC NOTCH1 (NCI-H2171, 0.1 nM, 24 hrs): 0.49 | Log2_FC ASCL1 (NCI-H2171, 0.1 nM, 96 hrs): −0.29 | Log2_FC GRP (NCI-H2171, 0.1 nM, 96 hrs): −1.96 | Log2_FC NOTCH1 (NCI-H2171, 0.1 nM, 96 hrs): 0.95 | Log2_FC ASCL1 (NCI-H2171, 0.1 nM, 168 hrs): −0.16 | Log2_FC GRP (NCI-H2171, 0.1 nM, 168 hrs): −1.11 | Log2_FC NOTCH1 (NCI-H2171, 0.1 nM, 168 hrs): 0.90 | Log2_FC ASCL1 (NCI-H2171, 1 nM, 24 hrs): −0.06 | Log2_FC NOTCH1 (NCI-H2171, 1 nM, 24 hrs): 0.75 | Log2_FC ASCL1 (NCI-H2171, 1 nM, 96 hrs): −0.43 | Log2_FC GRP (NCI-H2171, 1 nM, 96 hrs): −1.17 | Log2_FC NOTCH1 (NCI-H2171, 1 nM, 96 hrs): 1.17 | Log2_FC ASCL1 (NCI-H2171, 1 nM, 168 hrs): −0.02 | Log2_FC GRP (NCI-H2171, 1 nM, 168 hrs): −1.56 | Log2_FC NOTCH1 (NCI-H2171, 1 nM, 168 hrs): 1.41 | Log2_FC ASCL1 (NCI-H2171, 10 nM, 24 hrs): −0.16 | Log2_FC GRP (NCI-H2171, 10 nM, 24 hrs): −0.37 | Log2_FC NOTCH1 (NCI-H2171, 10 nM, 24 hrs): 0.82 | Log2_FC ASCL1 (NCI-H2171, 10 nM, 96 hrs): −0.27 | Log2_FC GRP (NCI-H2171, 10 nM, 96 hrs): −0.46 | Log2_FC NOTCH1 (NCI-H2171, 10 nM, 96 hrs): 1.22 | Log2_FC ASCL1 (NCI-H2171, 10 nM, 168 hrs): −0.11 | Log2_FC GRP (NCI-H2171, 10 nM, 168 hrs): −0.87 | Log2_FC NOTCH1 (NCI-H2171, 10 nM, 168 hrs): 1.63 | Log2_FC ASCL1 [1]: −0.11 | Log2_FC GRP [1]: 0.17 | Log2_FC ASCL1 [2]: 0.11 | Log2_FC GRP [2]: 0.74 | Log2_FC ASCL1 [3]: −0.36 | Log2_FC GRP [3]: 0.43 | Log2_FC ASCL1 [4]: 0.52 | Log2_FC GRP [4]: 1.20 | Log2_FC ASCL1 [5]: 0.38 | Log2_FC GRP [5]: 0.83 | Log2_FC ASCL1 [6]: −0.33 | Log2_FC GRP [6]: 0.16 | Log2_FC ASCL1 [7]: −0.07 | Log2_FC GRP [7]: −0.10 | Log2_FC ASCL1 [8]: 0.22 | Log2_FC GRP [8]: 0.56 | Log2_FC ASCL1 [9]: −0.50 | Log2_FC GRP [9]: −0.06
